Measurements: patent US20250319105A1, “NEUROACTIVE STEROID FOR THE TREATMENT OF ALZHEIMER'S DISEASE” (SAGE THERAPEUTICS, INC., priority 2021, published 2025)
Entries after “also recorded” stand apart in the source; their conditions may differ.

Legend:
[1] = system: participants with MCI or mild dementia due to AD; assay: Open-label study: tests of attention and psychomotor performance (RTI, PVT); format: in vivo, human; settings: 3 mg once daily oral for 14 days
Excerpt: (§1) Additional objectives of the study were to assess the following: • PK profile of Compound 1 following administration of multiple doses as assessed by periodic PK sampling • Change from baseline on tests of executive function. • Change from baseline on tests of learning and memory. • Verbal Recognition Memory • Paired Associates Learning • Pattern Recognition Memory • Spatial Span • Change from baseline on tests of social cognition. • Emotion Recognition Task • Emotion Bias Task • Change from baseline on tests of psychomotor function. • Change from baseline on assessments of neuropsychiatric symptoms: • Change from baseline in performance on the Montreal Cognitive Assessment • Change from baseline in Clinical Global Impressions-Severity scores • Overall scores on Clinical Global Impressions-Improvement scales • Change from baseline in Amsterdam Instrumental Activities of Daily Living • Change from baseline in exploratory peripheral biomarkers • Amyloid PET Scan
The tests of Attention and Psychomotor Performance included Reaction Time (RTI), which assesses how fast the subject can respond to a stimulus (weekly measure); Psychomotor Vigilance Task (PVT), which assesses how fast can the subject respond to a stimulus (daily measure).

[2] = system: participants with MCI or mild dementia due to AD; assay: Open-label study: safety and tolerability (TEAEs, laboratory, vital signs, ECG); settings: 3 mg once daily oral for 14 days
Excerpt: The Study comprised a 2-week screening period, a 1-week baseline period, a 2-week open-label treatment period, and a 2-week follow-up period. […] During the 1-week pre-treatment baseline period, patients underwent repeated cognitive testing using a comprehensive battery of tests to establish a robust cognitive baseline across multiple domains of cognitive function.
The key inclusion criteria for the subjects were as follows: • Be between the ages of 50 and 80 years, inclusive, at Screening • Meet the following criteria for MCI or mild dementia due to AD at Screening: • A memory complaint reported by the participant or his/her study partner • A CDR score of 0.5 to 1.0 (inclusive) with a memory box score ≥0.5 • Essentially preserved activities of daily living, in the opinion of the investigator. • Brain MRI report, obtained within the 2 years preceding the Baseline Period, that is consistent with the diagnosis of AD-MCI with no clinically significant findings of non-AD pathology that could account for the observed cognitive impairment • Have a score of 15 to 24 (inclusive) on the MoCA at Screening • Have an estimated premorbid IQ≥85 (as assessed by the Test of Premorbid Functioning, performed at Screening
The Primary objective of the study was to assess (1) the incidence of Treatment-Emergent Adverse Event (TEAE).
The secondary objectives of the study were to assess: • the percentage of Participants With Clinically Significant Changes in Vital Sign Measurements, clinical laboratory analytes, electrocardiograms (ECGs), and responses on the Columbia-Suicide Severity Rating Scale (C-SSRS).

[3] = system: participants with MCI or mild dementia due to AD; assay: Open-label study: tests of learning and memory (PAL, PRM, VRM, Spatial Span); format: in vivo, human
Excerpt: as §1
The tests of Learning and Memory included Paired Associates Learning (PAL), which assesses how well the subject remembers the location of hidden objects; Pattern Recognition Memory (PRM), which assesses how well the subject remembers a pattern; and Verbal Recognition Memory […], which assesses how well the subject stores and retrieves verbal information.

[4] = system: participants with MCI or mild dementia due to AD; assay: Open-label study: tests of executive functioning (MTT, OTS, SWM, DSST, 2-Back); format: in vivo, human
Excerpt: as §1
The tests of Executive Functioning included (1) Multitasking Test (MTT), which assesses how well the subject manages conflicting information; (2) One Touch Stockings of Cambridge (OTS), which assesses how well the subject plans, holds onto, and manipulates information to solve a puzzle; (3) Spatial Working Memory (SWM), which assesses how well the subject develops and uses a strategy to find hidden information; (4) Digit Symbol Substitution Task (DSST), which assesses how efficiently can the subject complete a demanding task (daily measure); and (5) Two-Back Test (NBX), which asks is the symbol the same as that shown two symbols ago.

[5] = Open-label study: PK sampling, plasma concentrations; format: in vivo, human; settings: Day 7 and Day 14; 3 mg once daily oral with a meal
Excerpt: as §1

[6] = system: participants with MCI or mild dementia due to AD; assay: Open-label study: global cognition, Montreal Cognitive Assessment (MoCA); format: in vivo, human; settings: 3 mg once daily oral for 14 days
Excerpt: as §1

[7] = 3 mg once daily oral for 14 days, change from baseline, Clinic/Weekly

SMILES: C[C@H](CC[C@](C)(O)C(F)(F)F)[C@H]1CC[C@H]2[C@@H]3CC=C4C[C@@](C)(O)CC[C@]4(C)[C@H]3CC[C@]12C [Compound 1]
- Changes in attention or psychomotor processing [1]: No changes
- Reaction Time, Directional Trend ([1]; change from baseline, Clinic/Weekly): No Change
- Psychomotor Vigilance Task, Directional Trend ([1]; change from baseline, Mobile/Daily): No Change
- Clinically significant laboratory abnormalities ([2]; 26 enrolled subjects): No clinically significant laboratory abnormalities
- Clinically significant vital sign or ECG abnormalities ([2]; 26 enrolled subjects): No clinically significant vital sign or ECG abnormalities
- Number of TEAEs ([2]; 26 enrolled subjects): 8
- Severe TEAEs, SAEs, or deaths ([2]; 26 enrolled subjects): No severe TEAEs, SAEs, or deaths
- TEAEs resulting in study drug discontinuation or withdrawal from the study ([2]; 26 enrolled subjects): No TEAEs resulted in study drug discontinuation or withdrawal from the study
- Mild TEAEs, n (%) ([2]; of 8 TEAEs): 4 (50%)
- Moderate TEAEs, n (%) ([2]; of 8 TEAEs): 4 (50%)
- Number of TEAEs considered related to study treatment ([2]; of 8 TEAEs): 6
- Number of subjects who experienced TEAEs ([2]; of the 26 enrolled subjects): 7
- Paired Associates Learning, Directional Trend [3, 7]: no change (or slight worsening); also recorded: Mixed
- Pattern Recognition Memory, Directional Trend [3, 7]: numerical improvement
- Spatial Span, Directional Trend [3, 7]: no change (or slight worsening); also recorded: Mixed
- Verbal Recognition Memory, Directional Trend [3, 7]: Improvement
- Performance on tests of learning and memory ([3]; Day 14 vs baseline, 3 mg once daily oral): additional signals suggesting improved performance
- 2-Back Test, Directional Trend [4, 7]: numerical improvement
- Multitasking, Directional Trend [4, 7]: numerical improvement
- One Touch Stockings, Directional Trend [4, 7]: numerical improvement
- Spatial working Memory, Directional Trend [4, 7]: numerical improvement
- Digit Symbol Substitution, Directional Trend ([4]; 3 mg once daily oral for 14 days, change from baseline, Mobile/Daily): numerical improvement
- Performance from baseline on all tests of executive functioning ([4]; Day 14, 3 mg once daily oral): improved performance
- Plasma concentrations versus predicted range [5]: consistent with the predicted range
- MoCA (Global), Directional Trend ([6]; change from baseline, Monthly): Improvement
- MoCA score, mean CFB (change from baseline) ([6]; CFB at Day 28, n = 20): 2.3
- MoCA score, mean ([6]; Day 28, n = 20, baseline mean 20.5): (22.8
- Improvement in global cognition, assessed via MoCA ([6]; statistically significant): +2.3 pts
